The target of one series is T1, Thymidine kinase (Macacine herpesvirus 1, UniProt A3RLP8).
T1 sequence (A3RLP8 whole entry): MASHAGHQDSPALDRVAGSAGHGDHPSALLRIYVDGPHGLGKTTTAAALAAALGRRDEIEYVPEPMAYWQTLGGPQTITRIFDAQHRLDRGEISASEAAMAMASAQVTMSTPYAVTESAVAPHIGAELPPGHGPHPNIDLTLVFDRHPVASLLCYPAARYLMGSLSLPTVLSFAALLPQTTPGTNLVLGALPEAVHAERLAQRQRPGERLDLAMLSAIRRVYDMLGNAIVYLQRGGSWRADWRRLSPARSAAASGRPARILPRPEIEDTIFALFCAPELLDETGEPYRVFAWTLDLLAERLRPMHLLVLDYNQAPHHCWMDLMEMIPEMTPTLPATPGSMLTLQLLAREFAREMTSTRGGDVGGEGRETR

For a further series, the system named is Human alphaherpesvirus 1. In words: microbe, parasite or virus in culture. In kind it is functional, organism-based. As to conditions: Human alphaherpesvirus 1, F, Vero.
Series [1] deals with Macacine alphaherpesvirus 1. As to the kind of experiment: microbe, parasite or virus in culture. As to conditions: Macacine alphaherpesvirus 1, Vero. In kind it is functional, organism-based.
The test system of series [2] is Macacine alphaherpesvirus 1. As to the kind of experiment: microbe, parasite or virus in culture. Format: functional, organism-based. The settings on record: Macacine alphaherpesvirus 1, Vero. The source holds these as a separate data set.
For series [3], the target named is T2, Thymidine kinase (Macacine herpesvirus 1) (UniProt A3RLP8).
T2 sequence (whole entry): T1 sequence (A3RLP8 whole entry)
In words: Activity of Herpes B virus recombinant thymidine kinase at 100 uM. The settings on record: Macacine alphaherpesvirus 1.

Series [4] in a line: Cytotoxicity against african green monkey Vero cells after 2 days. In kind it is cell-based. As to conditions: chlorocebus sabaeus.
Series [5] concerns Macacine alphaherpesvirus 1. As to the kind of experiment: microbe, parasite or virus in culture. In kind it is functional, organism-based. The settings on record: Macacine alphaherpesvirus 1, Vero. The source holds these as a separate data set.
The target of series [6] is T2, Thymidine kinase (Macacine herpesvirus 1). The settings on record: Macacine alphaherpesvirus 1; 100 uM.
Series [7] has the same target. In words: Activity of Herpes B virus recombinant thymidine kinase at 1 mM. The settings on record: Macacine alphaherpesvirus 1.
Substrate in series [8]: Cc1cn([C@H]2C[C@H](O)[C@@H](CO)O2)c(=O)[nH]c1=O
As to the kind of experiment: (§1) Activity of Herpes B virus recombinant thymidine kinase. The settings on record: Macacine alphaherpesvirus 1.

Substrate in series [9]: O=c1[nH]c(Nc2ccccc2)nc2c1ncn2CCCCO
Described as §1. As to conditions: Macacine alphaherpesvirus 1.

Substrate in series [10]: Cc1cn([C@H]2C[C@H](O)[C@@H](CO)O2)c(=O)[nH]c1=O
As to conditions: Human alphaherpesvirus 1.

“And” between values parts separate entries of the source, which are not always exact repeats. Identical values can stand only once. The source made the active and inactive calls. The calls are words filed in the database; no cut-off is given here.

Regarding `CCc1cn([C@H]2C[C@H](O)[C@@H](CO)O2)c(=O)[nH]c1=O` [EDOXUDINE], the midpoint of inhibition against Thymidine kinase, the IC50, lay at 0.15 µM. Also, the EC50 in the series on Human alphaherpesvirus 1 was found to be 2.1 µM; in series [1] it was 13.3 µM; in series [2] it was 48 µM; in [5] it was 37.4 µM. The Activity in series [3] came to 82%. Besides, the 50% cytotoxic concentration (CC50) at 48 h in series [4] is more than 780 µM.

For the molecule `O=c1ccn([C@@H]2O[C@H](CO)[C@H](O)[C@@H]2O)c(=O)[nH]1`, the outcome in [6] was inactive.

On Thymidine kinase, `Nc1nc(O)c2ncn(COC(CO)CO)c2n1` [GANCICLOVIR] had an IC50 of 800 µM. This molecule also came in with a CC50 at 48 h in series [4] of 666 µM.

As for `Cc1cc(=O)[nH]c(=O)n1[C@@H]1O[C@H](CO)[C@@H](O)[C@H]1O`, the outcome in series [6] was inactive.

With `Nc1nc2c(ncn2COC(CO)CO)c(=O)[nH]1` [GANCICLOVIR], the EC50 in the series on Human alphaherpesvirus 1 amounted to 0.7 µM; in series [1], 19.2 µM; in series [2], 23.5 µM; in series [5], 14.5 µM. Moreover, the result in [7] and in series [3] was inactive.

Molecule `O=c1[nH]c(Nc2cccc(C(F)(F)F)c2)nc2nc[nH]c12` showed an IC50 at Thymidine kinase of 3.5 µM.

Consider `O=c1[nH]c(=O)n(C2C[C@H](O)[C@@H](CO)O2)cc1/C=C/Br` (single isomer, unassigned), for which the result in series [7] and in series [3] was inactive.

For the molecule `Cc1cn([C@H]2C[C@H](O)[C@@H](CO)O2)c(=O)[nH]c1=O` (stereo in doubt; form 2), in series [3], the Activity was found to be 100%.

Consider `CN(C)CCCCn1cnc2c(O)nc(Nc3ccccc3)nc21`, for which half-maximal inhibition against Thymidine kinase (IC50) was put at 1.2 µM.

Regarding `O=c1[nH]c(=O)n([C@H]2C[C@H](O)[C@@H](CO)O2)cc1/C=C/Br` [BRIVUDINE], the EC50 is 0.12 µM in the series on Human alphaherpesvirus 1, more than 300 µM in series [2] and more than 300 µM in series [5]. Moreover, the outcome in [7] and in series [3] was inactive. This molecule also showed a CC50 at 48 h in series [4] of more than 600 µM.

Take `Nc1ncnc2c1ncn2[C@@H]1O[C@H](CO)[C@@H](O)[C@@H]1O` [VIDARABINE]: the EC50 worked out at 7 µM in the series with Human alphaherpesvirus 1, 35 µM in [2] and 28 µM in series [5]. Also, the result in [6] was inactive. For the same molecule, in [4], half-maximal cytotoxicity (CC50 at 48 h) was put at 38 µM.

For `Nc1nc2c(ncn2CCC(CO)CO)c(=O)[nH]1` [PENCICLOVIR], inhibition at Thymidine kinase was half-maximal at 84.4 µM (IC50). In series [4], the CC50 at 48 h was more than 790 µM.

For `CCc1cn([C@@H]2C[C@H](O)[C@@H](CO)O2)c(=O)[nH]c1=O`, the IC50 against Thymidine kinase is 52 µM.

On to `Nc1nc2c(ncn2COCCO)c(=O)[nH]1` [ACYCLOVIR], for which the EC50 with Human alphaherpesvirus 1 is 1.4 µM; in [1], 47.5 µM; in series [2], 118 µM; in [5], 112 µM. Besides, the outcome in [7] and in series [3] was inactive. The CC50 at 48 h in [4] is more than 890 µM.

With `Nc1nc(O)c2ncn(CCC(CO)CO)c2n1` [PENCICLOVIR], the EC50 with Human alphaherpesvirus 1 came to 4.7 µM; in series [1], 17.3 µM; in series [2] it was 25.3 µM; in series [5] it was 17 µM. For the same molecule, the Activity in series [3] came out at 72%.

`Cc1cn([C@H]2C[C@H](O)[C@@H](CO)O2)c(=O)[nH]c1=O` (stereo in doubt; form 1): the Activity in series [3] stood at 130%.

`Nc1ccn(C[C@@H](CO)OCP(=O)(O)O)c(=O)n1` [CIDOFOVIR]: the IC50 at Thymidine kinase was 900 µM. Further, the concentration giving a half-maximal response (EC50) in the series with Human alphaherpesvirus 1 turned out to be 14.4 µM; in [2], 21.6 µM; in series [5], 28.9 µM. Besides, the outcome in [7] and in [3] was inactive. Besides, the CC50 at 48 h in [4] was more than 720 µM.

`O=c1[nH]c(Nc2ccccc2)nc2c1ncn2CCCCO`: the EC50 in the series with Human alphaherpesvirus 1 was 330 µM; in [2] it was more than 330 µM; in series [5], more than 330 µM. Besides, the Activity in series [3] came to 200%. Further, the CC50 at 48 h in [4] was more than 660 µM.

As for `O=c1[nH]c(=O)n([C@H]2C[C@H](O)[C@@H](CO)O2)cc1I` [IDOXURIDINE], the EC50 stood at 2.8 µM in the series on Human alphaherpesvirus 1, 8.5 µM in series [2] and 11.2 µM in [5]. Also, the Activity in [3] was determined as 58%. The molecule also gave a CC50 at 48 h in series [4] of 6.8 µM.

As for `O=c1[nH]c(=O)n(C2C[C@H](O)[C@@H](CO)O2)cc1I` (single isomer, unassigned), the Activity in [3] stood at 94%.

As for `Nc1nc2c(ncn2CCCCO)c(=O)[nH]1`, the 50% inhibitory concentration (IC50) at Thymidine kinase was determined as 177 µM. The Activity in series [3] is 94%.

Molecule `O=c1[nH]c(=O)n([C@H]2C[C@H](O)[C@@H](CO)O2)cc1C(F)(F)F` [TRIFLURIDINE] yielded an IC50 against Thymidine kinase of 2 µM. In addition, the EC50 with Human alphaherpesvirus 1 was less than 1.7 µM; in series [2], 3.4 µM; in series [5], 1.7 µM. In addition, in series [3], the Activity was found to be 55%. The molecule further showed a CC50 at 48 h in [4] of 50.6 µM.

`CCCc1cn([C@H]2C[C@H](O)[C@@H](CO)O2)c(=O)[nH]c1=O` showed an IC50 on Thymidine kinase of 4.2 µM. Further, the Activity in [3] stood at 31%.

As for `O=C(O)P(=O)(O)O` [FOSCARNET], the results for the EC50 (in the series on Human alphaherpesvirus 1; in [2]; in series [5]) were 250 µM, 250 µM and more than 500 µM, respectively. The same molecule registered a CC50 at 48 h in [4] of more than 1 µM.

B1: Thymidine kinase (Macacine herpesvirus 1), A3RLP8 (protein)
chain: T1 sequence (A3RLP8 whole entry)
For the molecule B1, in series [8], the Km was 0.7 µM and 0.65 µM; the Vmax (nmol/hr/microg) is 0.2 and 0.15. In series [9], the Michaelis-Menten constant (Km) came to 7.4 µM and the Vmax (nmol/hr/microg) amounted to 3.9.

B2: Thymidine kinase (Human alphaherpesvirus 1), Q9QNF7 (protein)
chain: MASYPCHQHASAFDQAARSRGHSNRRTALRPRRQQEATEVRLEQKMPTLLRVYIDGPHGMGKTTTTQLLVALGSRDDIVYVPEPMTYWQVLGASETIANIYTTQHRLDQGEISAGDAAVVMTSAQITMGMPYAVTDAVLAPHIGGEAGSSHAPPPALTLIFDRHPIAALLCYPAARYLMGSMTPQAVLAFVALIPPTLPGTNIVLGALPEDRHIDRLAKRQRPGERLDLAMLAAIRRVYGLLANTVRYLQGGGSWREDWGQLSGTAVPPQGAEPQSNAGPRPHIGDTLFTLFRAPELLAPNGDLYNVFAWALDVLAKRLRPMHVFILDYDQSPAGCRDALLQLTSGMVQTHVTTPGSIPTICDLARTFAREMGEAN
Regarding B2, the Km in [10] stood at 1 µM.
